In article PMC3795776, “Alpha-Helical Destabilization of the Bcl-2-BH4-Domain Peptide Abolishes Its Ability to Inhibit the IP3 Receptor” (PLoS ONE, 2013):

Columns and labels:
[1] = system: IP3R-mediated Ca2+ release in permeabilized MEF cells; test: Unidirectional 45Ca2+-flux assay, IP3-induced Ca2+ release (IICR); format: cell-based, mouse; settings: result in words; for effect on IP3R-mediated Ca2+ release at 50 µM peptide: 3 µM IP3, 50 µM peptide
Protocol: ^45Ca^2+-unidirectional flux experiments were performed as previously described. Twelve-well clusters containing MEF cells were fixed on a thermostated plate at 30 °C on a mechanical shaker. The culture medium was aspirated, and the cells were permeabilized by incubating them for 10 min in a solution containing 120 mM KCl, 30 mM imidazole-HCl (pH 6.8), 2 mM MgCl2, 1 mM ATP, 1 mM EGTA and 20 µg/ml saponin. The non-mitochondrial Ca^2+ stores were then loaded for 45 min in 120 mM KCl, 30 mM imidazole-HCl (pH 6.8), 5 mM MgCl2, 5 mM ATP, 0.44 mM EGTA, 10 mM NaN3 to prevent mitochondrial Ca^2+ uptake, and 150 nM free ^45Ca^2+ (28 µCi/ml). Then, 1 ml of efflux medium containing 120 mM KCl, 30 mM imidazole-HCl (pH 6.8) and 1 mM EGTA was added and replaced every 2 min. IP3 (3 µM) was added for 2 min after 10 min of efflux. At the end of the experiment, all ^45Ca^2+ remaining in the stores was released by incubation with 1 ml of a 2% (w/v) sodium dodecyl sulfate solution for 30 min. Ca^2+ release was plotted as fractional loss (% / 2 min) as a function of time as previously described. The effect of the BH4-domain peptides on IICR was tested by pre-incubating the peptides for 4 min before exposing the stores to IP3.

[2] = CD spectroscopy, α-helical content (CONTIN/LL deconvolution); format: physicochemical; settings: 50 µM peptide in 97.5% TFE / 2.5% methanol, 25 °C, 190-260 nm, ten scans, CDPro CONTIN/LL
Protocol: CD spectra (Jasco J-810 circular dichroism spectropolarimeter, USA) were recorded at 1 nm intervals over the 190-260 nm wavelength range using 1 mm path length quartz cells (Hellma, Germany). Ten scans were performed. The experiments were run at 20 nm/min and the temperature was fixed at 298^° K (25 °C). The secondary structure of the peptide (50 µM) was determined in 97.5% 2,2,2-trifluoroethanol (TFE) and 2.5% methanol. The ellipticity is calculated per mole of amino-acid residue. To estimate the secondary structure of the peptide in terms of α-helical content, an analysis of the relevant CD spectra was carried out using the CDPro software (http://lamar.colostate.edu/~sreeram/CDPro/main.html) developed by Woody and coworkers. The basis set 10 of the CDPro software was used. The analysis was performed using the CONTIN/LL [31], a self-consistent method with an incorporated variable selection.

[3] = target: GST-Dom3 IP3R1 (GST fused to IP3R1 Domain 3, aa 923-1581) (mouse, UniProt P11881 923-1581); test: cell-based or functional assay
Sequence of GST-Dom3 IP3R1 (GST fused to IP3R1 Domain 3, aa 923-1581) (P11881 923-1581): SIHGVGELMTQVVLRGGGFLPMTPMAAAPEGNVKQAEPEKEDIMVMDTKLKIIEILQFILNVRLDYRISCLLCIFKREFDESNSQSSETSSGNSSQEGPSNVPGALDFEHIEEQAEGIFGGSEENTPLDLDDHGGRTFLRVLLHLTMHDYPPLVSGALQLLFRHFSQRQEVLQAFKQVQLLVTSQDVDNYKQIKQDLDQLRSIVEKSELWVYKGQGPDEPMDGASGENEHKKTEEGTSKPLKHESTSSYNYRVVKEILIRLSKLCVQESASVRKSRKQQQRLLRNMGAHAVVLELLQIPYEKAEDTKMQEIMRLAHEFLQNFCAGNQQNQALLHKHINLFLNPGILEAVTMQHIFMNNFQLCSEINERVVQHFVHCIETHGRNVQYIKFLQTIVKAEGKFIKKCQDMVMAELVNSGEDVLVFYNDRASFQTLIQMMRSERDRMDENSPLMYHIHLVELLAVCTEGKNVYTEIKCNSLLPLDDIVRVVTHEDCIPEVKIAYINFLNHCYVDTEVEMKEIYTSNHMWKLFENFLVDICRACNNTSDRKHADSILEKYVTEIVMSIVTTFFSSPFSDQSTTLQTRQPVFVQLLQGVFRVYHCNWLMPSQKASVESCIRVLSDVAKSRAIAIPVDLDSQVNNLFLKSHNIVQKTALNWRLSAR

Molecule	effect on IICR, concentration-response ([1]; 3 µM IP3, peptide 0.1-100 µM, 3 independent experiments)	α-helical content [2]	effect on IP3R-mediated Ca2+ release at 50 µM peptide [1]	IC50 of inhibition of IP3-induced Ca2+ release (IICR), unidirectional 45Ca2+ flux in permeabilized MEF cells, 3 µM IP3, peptide 0.1-100 µM [3]
WYEKQRSLHGIMYYVIEDRNTKGYR [Bcl-2-BH4 SCR, scrambled version of the Bcl-2-BH4 peptide, reference compound]	neither Bcl-2-BH4 IV/GG (Figure 3A-B) nor the scrambled version of the Bcl-2-BH4 peptide (Bcl-2-BH4 SCR) (Figure 3B) significantly affect IICR			
RTGYDNREIGMKYGHYKGSQRGYEW [Bcl-2-BH4 VIL/GGG, Bcl-2-BH4 peptide with glycines at positions V15/I19/L23]		17.7%	lost their ability to inhibit IP3R-mediated Ca^2+ release	
RTGYDNREGVMKYGHYKLSQRGYEW [Bcl-2-BH4 II/GG, Bcl-2-BH4 peptide with glycines at positions I14/I19]		32%	lost their ability to inhibit IP3R-mediated Ca^2+ release	
RTGYDNREIVMKYIHYKLSQRGYEW [Bcl-2-BH4 peptide]				~30 µM
